Patent publication US11753374B2, “Compounds for the treatment of acute and chronic kidney disease” (Southern Research Institute, priority 2020, dated 2023)

Tested on: heme oxygenase-1 (HO-1)
Test: High throughput screen: HO-1 promoter/enhancer luciferase reporter (pHOGL3/4.5+220) in stable HEK293 cells
Format: cell-based
Settings: Homo sapiens; for EC50: Table 1, evaluation of biaryl aminomaleimides, HO-1 induction; for Emax: Table 1, unit inferred, Emax as % of 5 μM hemin
Method: The generation of the pHOGL3/4.5+220 construct is described in Deshane, et al. (2010) “SpI regulates chromatin looping between an intronic enhancer and distal promoter of the human heme oxygenase-1 gene in renal cells” J Biol Chem 285(22): 16476-86. See also FIG. 1.
Briefly, BamHI sites were added to the 4.5-kb PCR product generated by long-range PCR from a bacterial artificial chromosome clone containing portions of chromosome 22 (accession no. Z82244), including the HO-1 gene. This fragment was cloned into the BglII restriction site of the multiple cloning region to make the parental clone (pHOGL3/4.5). The 220-bp intronic enhancer was amplified with SalI sites on either end and cloned into the SalI site of the vector to generate pHOGL3/4.5+220.
In order to generate cells that stably express luciferase expression vectors that lack a mammalian antibiotic selection cassette, HEK293 cells were co-transfected with either pHOGL3/4.5+220 (Deshane et al, 2010) or the Triple Mutant construct (Liby, Hock et al, 2005; Hock et al, 2007) and pcDNA3.1 Zeocin using Lipofectamine 2000. Cells were cultured in Zeocin (400 ug/ml; Invitrogen) for selection. Individual clones were sorted by flow cytometry and plated into a 96-well plate at a density of one cell per well. Clones were maintained and expanded in complete media (DMEM/10% FBS/1× antibiotic-antimycotic) supplemented with 100 ug/ml Zeocin, and incubated at 37° C. in 5% carbon dioxide. Incorporation of the Luciferase expression vectors was validated by assaying for luciferase.
A library of over 150,000 compounds, as well as a library of over 4,000 FDA approved compounds, were used in the HTS assay. […] This led to the identification of approximately 800 compounds that induce HO-1 and have desirable chemical structures. […] The In-Cell Western assay was optimized to screen for endogenous HO-1 in a high throughput platform, and results were validated by Western blot, real-time PCR, and enzyme activity assays. Additional RNA sequencing studies highlighted a role for the transcription factor Nrf2 and other targets in HO-1 induction by several small molecules.

SMILES | EC50 | Emax
COc1cc(N2C(=O)C=C(Nc3cc(F)c(O)c(F)c3)C2=O)cc(OC)c1OC [Compound 33] | 2.08 µM | 28.4%
COc1c(Cl)cccc1N1C(=O)C=C(Nc2cc(F)c(O)c(F)c2)C1=O [Compound 34] | > 50 µM | 28.3%
Cc1ccc(N2C(=O)C=C(Nc3cc(F)c(O)c(F)c3)C2=O)cc1 [Compound 35] | 2.1 µM | 96.8%
CC(C)c1ccc(N2C(=O)C=C(Nc3cc(F)c(O)c(F)c3)C2=O)cc1 [Compound 36] | 0.89 µM | 52.5%
Cc1ccc(N2C(=O)C=C(Nc3cc(F)c(O)c(F)c3)C2=O)cc1C [Compound 37] | 1.56 µM | 57.2%
Cc1ccc(N2C(=O)C=C(Nc3cc(F)c(O)c(F)c3)C2=O)c(C)c1 [Compound 38] | 2.29 µM | 57%
O=C1C=C(Nc2cc(F)c(O)c(F)c2)C(=O)N1c1ccc(C(F)(F)F)cc1 [Compound 39] | 4.32 µM | 94.9%
N#Cc1ccc(N2C(=O)C=C(Nc3cc(F)c(O)c(F)c3)C2=O)cc1 [Compound 40] | > 50 µM | –
O=C1C=C(Nc2cc(F)c(O)c(F)c2)C(=O)N1c1ccc(N2CCCCC2)cc1 [Compound 41] | 11.5 µM | 70.4%
O=C1C=C(Nc2cc(F)c(O)c(F)c2)C(=O)N1c1ccc(-c2ncco2)cc1 [Compound 42] | > 50 µM | –
O=C1C=C(Nc2cc(F)c(O)c(F)c2)C(=O)N1Cc1ccccc1 [Compound 43] | 1.03 µM | 67.5%
COC(=O)c1ccc(N2C(=O)C=C(Nc3cc(F)c(O)c(F)c3)C2=O)cc1 [Compound 44] | 19.1 µM | 99.6%
O=C1C=C(Nc2cc(F)c(O)c(F)c2)C(=O)N1c1cccc2ccccc12 [Compound 45] | 36.1 µM | 141%
O=C1C=C(Nc2cc(F)c(O)c(F)c2)C(=O)N1CCc1ccccc1 [Compound 46] | 0.43 µM | 68.5%
O=C1C=C(Nc2cc(F)c(O)c(F)c2)C(=O)N1c1ccccc1C(F)(F)F [Compound 47] | 19.7 µM | 91.1%
O=C1C=C(Nc2cc(F)c(O)c(F)c2)C(=O)N1c1ccccc1F [Compound 48] | 13.7 µM | 82.9%
COc1c(F)cc(N2C(=O)C=C(Nc3cc(F)c(O)c(F)c3)C2=O)cc1F [Compound 49] | 8.37 µM | 69.6%
O=C1C=C(Nc2cc(F)c(O)c(F)c2)C(=O)N1c1ccc(O)cc1 [Compound 50] | 15.3 µM | 75.2%
NC(=O)c1cccc(N2C(=O)C=C(Nc3cc(F)c(O)c(F)c3)C2=O)c1 [Compound 51] | 15.4 µM | 62.4%

SMILES | EC50 | Emax
COc1cc(N2C(=O)C=C(Nc3cc(F)c(O)c(F)c3)C2=O)ccc1F [Compound 52] | 14 µM | 53.1%
CN(C)c1ccc(N2C(=O)C=C(Nc3cc(F)c(O)c(F)c3)C2=O)cc1 [Compound 53] | 3.35 µM | 94.1%
COc1ccccc1N1C(=O)C=C(Nc2cc(F)c(O)c(F)c2)C1=O [Compound 54] | 20 µM | 54.9%
O=C1C=C(Nc2cc(F)c(O)c(F)c2)C(=O)N1c1ccc(OC(F)F)cc1 [Compound 55] | 2.27 µM | 93.3%
COc1ccc(N2C(=O)C=C(Nc3cc(F)c(O)c(F)c3)C2=O)cc1C#N [Compound 56] | 8.39 µM | 36.1%
COc1ccc(N2C(=O)C=C(Nc3cc(F)c(O)c(F)c3)C2=O)cc1F [Compound 57] | 5.67 µM | 98.7%
CC(C)(C)c1ccc(N2C(=O)C=C(Nc3cc(F)c(O)c(F)c3)C2=O)cc1 [Compound 58] | 1.73 µM | 53.3%
O=C1C=C(Nc2cc(F)c(O)c(F)c2)C(=O)N1c1ccc(-c2cscn2)cc1 [Compound 59] | 9.22 µM | 43.9%
O=C1C=C(Nc2cc(F)c(O)c(F)c2)C(=O)N1c1ccc(N2CCOCC2)cc1 [Compound 60] | 22.2 µM | 66.9%
O=C1C=C(Nc2cc(F)c(O)c(F)c2)C(=O)N1c1ccc(Oc2ccccc2)cc1 [Compound 61] | 3.77 µM | 33.4%
O=C1C=C(Nc2cc(F)c(O)c(F)c2)C(=O)N1c1ccc(-c2ccccc2)cc1 [Compound 62] | 2.75 µM | 34.6%
O=C1C=C(Nc2cc(F)c(O)c(F)c2)C(=O)N1c1cccc(F)c1 [Compound 63] | 3.19 µM | 30%
O=C1C=C(Nc2cc(F)c(O)c(F)c2)C(=O)N1c1cccc(C(F)(F)F)c1 [Compound 64] | 3.33 µM | 23.9%
COC(=O)c1cccc(N2C(=O)C=C(Nc3cc(F)c(O)c(F)c3)C2=O)c1 [Compound 65] | 15.6 µM | 42.8%
N#Cc1cccc(N2C(=O)C=C(Nc3cc(F)c(O)c(F)c3)C2=O)c1 [Compound 66] | > 50 µM | –
O=C1C=C(Nc2cc(F)c(O)c(F)c2)C(=O)N1C1CCCCC1 [Compound 67] | > 50 µM | 25.6%
O=C1C=C(Nc2cc(F)c(O)c(F)c2)C(=O)N1C1CC1 [Compound 68] | > 50 µM | –
O=C1C=C(Nc2ccc(O)cc2)C(=O)N1c1cc(F)c(O)c(F)c1 [Compound 69] | 16.7 µM | 105%
O=C1C=C(Nc2ccccc2)C(=O)N1c1cc(F)c(O)c(F)c1 [Compound 70] | > 50 µM | –
